From ChEMBL document CHEMBL1201862, “PubChem BioAssay data set” (2004)
Where “and” joins values, the source holds several entries; their conditions need not be identical. Equal entries are not always repeated. Values belong to the molecule of their own block, whether it stands above or below them. Calls of active or inactive are those of the source.

How the values were obtained:
[1] = target: T1, Tyrosyl-DNA phosphodiesterase 2 (Homo sapiens, UniProt O95551); test: potency against TDP2 phosphodiesterase activity – biochemical, epi absorbance, IC50, dose response (AID 743297)
T1 sequence (O95551 whole entry): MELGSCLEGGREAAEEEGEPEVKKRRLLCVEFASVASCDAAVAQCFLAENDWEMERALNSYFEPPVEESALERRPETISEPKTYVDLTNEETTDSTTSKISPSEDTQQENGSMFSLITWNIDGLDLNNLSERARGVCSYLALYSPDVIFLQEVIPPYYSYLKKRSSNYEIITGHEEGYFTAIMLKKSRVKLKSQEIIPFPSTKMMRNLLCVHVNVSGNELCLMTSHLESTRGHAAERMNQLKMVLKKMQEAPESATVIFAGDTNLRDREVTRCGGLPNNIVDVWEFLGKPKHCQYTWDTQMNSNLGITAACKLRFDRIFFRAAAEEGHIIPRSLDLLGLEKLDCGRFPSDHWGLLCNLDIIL

[2] = target: T2, Histone-lysine N-methyltransferase NSD2 (Homo sapiens, UniProt O96028); assay type: biochemical
T2 sequence (O96028 whole entry): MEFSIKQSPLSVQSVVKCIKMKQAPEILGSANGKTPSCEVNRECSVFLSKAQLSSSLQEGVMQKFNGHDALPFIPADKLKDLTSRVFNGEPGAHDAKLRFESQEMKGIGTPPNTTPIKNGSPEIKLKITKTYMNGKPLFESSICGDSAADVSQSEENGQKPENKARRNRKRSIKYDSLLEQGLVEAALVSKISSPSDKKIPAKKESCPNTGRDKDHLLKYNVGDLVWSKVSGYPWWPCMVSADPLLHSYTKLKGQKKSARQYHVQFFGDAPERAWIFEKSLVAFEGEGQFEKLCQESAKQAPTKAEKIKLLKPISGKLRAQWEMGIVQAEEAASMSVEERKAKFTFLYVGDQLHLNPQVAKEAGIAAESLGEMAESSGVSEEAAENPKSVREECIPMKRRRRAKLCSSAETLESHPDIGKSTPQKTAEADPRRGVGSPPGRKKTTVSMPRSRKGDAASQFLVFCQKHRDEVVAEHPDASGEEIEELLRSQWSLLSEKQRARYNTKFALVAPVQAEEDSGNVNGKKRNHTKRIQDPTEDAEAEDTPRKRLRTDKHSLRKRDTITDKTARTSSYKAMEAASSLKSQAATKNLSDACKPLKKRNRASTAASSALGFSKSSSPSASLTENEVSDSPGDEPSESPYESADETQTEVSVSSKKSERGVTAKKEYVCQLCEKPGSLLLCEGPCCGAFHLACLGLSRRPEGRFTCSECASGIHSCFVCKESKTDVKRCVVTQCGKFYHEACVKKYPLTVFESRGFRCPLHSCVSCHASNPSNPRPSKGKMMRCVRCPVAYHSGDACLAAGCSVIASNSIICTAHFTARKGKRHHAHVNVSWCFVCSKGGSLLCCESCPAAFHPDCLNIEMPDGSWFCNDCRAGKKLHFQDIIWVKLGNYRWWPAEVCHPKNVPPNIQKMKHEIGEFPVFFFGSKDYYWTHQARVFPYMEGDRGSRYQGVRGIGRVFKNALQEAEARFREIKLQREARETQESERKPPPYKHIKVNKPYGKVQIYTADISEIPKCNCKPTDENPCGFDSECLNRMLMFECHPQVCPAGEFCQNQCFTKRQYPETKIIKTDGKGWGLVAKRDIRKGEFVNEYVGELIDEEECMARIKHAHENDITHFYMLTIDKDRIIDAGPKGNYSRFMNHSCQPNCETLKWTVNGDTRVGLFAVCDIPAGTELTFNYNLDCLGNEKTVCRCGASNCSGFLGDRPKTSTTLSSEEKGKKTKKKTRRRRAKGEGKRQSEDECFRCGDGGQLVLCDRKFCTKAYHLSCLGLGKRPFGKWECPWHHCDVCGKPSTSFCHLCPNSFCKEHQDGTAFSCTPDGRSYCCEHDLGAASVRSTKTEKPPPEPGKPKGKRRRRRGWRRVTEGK

[3] = target: T3, Sentrin-specific protease 7 (Homo sapiens, UniProt Q9BQF6); assay type: functional;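 further: Luminescence-based dose-response confirmation of ultra-high-throughput screening hits, measuring inhibition of SENP7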
T3 sequence (Q9BQF6 whole entry): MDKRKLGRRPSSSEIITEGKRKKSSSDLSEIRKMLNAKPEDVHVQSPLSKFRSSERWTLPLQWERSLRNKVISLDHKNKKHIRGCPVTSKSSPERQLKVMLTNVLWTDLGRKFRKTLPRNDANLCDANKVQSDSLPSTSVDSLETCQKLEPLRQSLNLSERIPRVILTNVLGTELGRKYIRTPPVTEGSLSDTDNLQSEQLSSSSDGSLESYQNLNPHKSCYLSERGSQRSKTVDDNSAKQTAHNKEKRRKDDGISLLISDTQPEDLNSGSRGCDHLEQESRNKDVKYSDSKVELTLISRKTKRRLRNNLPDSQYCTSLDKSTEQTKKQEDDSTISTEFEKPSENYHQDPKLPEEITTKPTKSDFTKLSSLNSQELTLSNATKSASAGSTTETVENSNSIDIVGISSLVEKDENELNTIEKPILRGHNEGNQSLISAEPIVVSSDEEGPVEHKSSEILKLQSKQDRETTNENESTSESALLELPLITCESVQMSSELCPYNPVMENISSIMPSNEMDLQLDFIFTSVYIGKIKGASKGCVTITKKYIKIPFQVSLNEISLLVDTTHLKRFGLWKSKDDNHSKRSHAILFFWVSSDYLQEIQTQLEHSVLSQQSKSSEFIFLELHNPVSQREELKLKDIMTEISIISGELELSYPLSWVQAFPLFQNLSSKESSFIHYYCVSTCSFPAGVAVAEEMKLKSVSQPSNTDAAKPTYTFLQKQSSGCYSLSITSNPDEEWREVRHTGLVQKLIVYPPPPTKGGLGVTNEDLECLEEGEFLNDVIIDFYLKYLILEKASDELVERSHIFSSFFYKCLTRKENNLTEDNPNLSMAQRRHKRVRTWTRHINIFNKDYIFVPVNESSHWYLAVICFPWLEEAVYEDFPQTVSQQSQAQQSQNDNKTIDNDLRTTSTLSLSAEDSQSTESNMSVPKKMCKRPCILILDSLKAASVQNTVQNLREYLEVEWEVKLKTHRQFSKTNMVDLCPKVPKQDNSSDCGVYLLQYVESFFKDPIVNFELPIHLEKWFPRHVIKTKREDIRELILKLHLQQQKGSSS

Compound: COc1cc(NCCCNC(C)C)c2nccc(C)c2c1
- IC50 [1]: > 128 µM (inactive)
- AC50 [2]: 9.71 µM (active)

Compound: O=C1C(Cl)=C(NCCN2CCCCC2)C(=O)c2ccccc21
- AC50 [2]: 6.54 µM (active)

Compound: Cc1oc2c(c1C(=O)c1ccccc1)C(=O)C(=O)c1ccccc1-2
- IC50 [3]: 9.15 µM (active)
- IC50 [1]: 14.2 µM (inactive)
- AC50 [2]: 14.3 µM (active)

- IC50 [3]: 2.36 µM (active)
- IC50 [1]: 11.2 µM (inactive)
Compound: COc1ccc(C(=O)Nc2nc3c(s2)Cc2cc(OC)ccc2-3)cc1

Compound: O=C1CCCC2=C1C1(O)C(=O)c3ccccc3C1(O)O2 (configuration not stated)
- IC50 [1]: 8.01 µM (active)

Compound: CC(/C=C1\SC(=S)N(NS(=O)(=O)c2ccccc2)C1=O)=C\c1ccccc1
- IC50 [3]: 30.7 µM (active)
- AC50 [2]: 13 µM (active)

Compound: CCN1/C(=C/c2ccc3cc(C)ccc3[n+]2CC)Sc2cc(C)c(C)cc21
- AC50 [2]: 19.5 µM (active) and 8.3 µM (active)
